How the values were obtained:
Wolbachia [1] = experiment: Microscopy-based high-throughput screen in Wolbachia-infected Drosophila tissue culture cells; type: cell-based; conditions: 100 uM in media, 3 days incubation
Method: In collaboration with the microscope company Molecular Devices, we optimized journaling software that analyzes the level of cytoplasmic DAPI (Wolbachia) fluorescence per cell in all wells of the plate. […] In this pilot, compounds were added to Wolbachia-infected cells at a final concentration of 100 uM in media and allowed to incubate for 3 days. Cells were then fixed, stained, imaged, and analyzed by automated machinery.

Wolbachia [2] = experiment: Confocal imaging of Wolbachia in treated Brugia malayi worms; type: in vivo
Brugia malayi = Brugia malayi drug feeding assay (worm mortality); type: in vivo
Description: Small molecules of interest found by the primary tissue culture screen must be tested in animal models to determine their relevance to Wolbachia in vivo. Because Wolbachia are vital endosymbionts of Brugia malayi worms that cause Elephantiasis, the next important step was to validate whether compounds found in the high-throughput screen could affect the viability of those worms. To assay this, we performed a pilot feeding assay by distributing Brugia malayi into 12-well plates containing tissue culture media and different compounds added to a final concentration of 100 uM. […] In this feeding assay, we observed that worms fed with pararosanaline pamoate ceased movement within 2 hours, whereas all other treatments took substantially longer to affect the worms (FIG. 3). Our preliminary dose-response tests of pararosanaline pamoate indicate that the lethal feeding dose lies between 25 uM and 10 uM.

Wolbachia [3] = experiment: Wolbachia titer in ovarian tissues of fed D. melanogaster (confocal microscopy, image-based quantification); type: in vivo, Wolbachia (in Drosophila melanogaster)
Method: As the next validation step, it was important to determine whether the compounds found in our screen can cure a host of Wolbachia while also permitting host viability. To investigate this, we first performed a feeding assay using Wolbachia-infected Drosophila melanogaster flies. Flies were provided with fly food containing pararosanaline pamoate at concentrations of 100 uM or less, and viability was scored over time. […] To then determine whether the treatment affected the quantity of Wolbachia carried by the D. melanogaster host, we fed pararosaniline pamoate to Wolbachia-infected fruit flies for 3 days and analyzed Wolbachia titer in ovarian tissues. This was performed through use of confocal microscopy and image-based bacterial quantification software.

Row | Compound | cytoplasmic DAPI (Wolbachia) fluorescence per cell / hit in tissue culture screen (Wolbachia [1]) | number of Wolbachia carried by host, worms killed by drug vs untreated worms (Wolbachia [2]) | time until worms ceased movement (Brugia malayi; 100 uM in tissue culture media, 12-well plates) [h] | worm viability after treatment (FIG. 3) (Brugia malayi; drug feeding assay) | cytoplasmic DAPI (Wolbachia) fluorescence per cell / hit in tissue culture screen (Wolbachia [1]; listed as pararosanaline pamoate) | Wolbachia titer in Drosophila oocytes (FIG. 5) (Wolbachia [3]; average quantity within a single focal plane of oocytes) | Wolbachia titer relative to control levels (Wolbachia [3]; fed for 3 days, ovarian tissues (oocytes), preliminary) [%]
1 | CC(C)(C)CC(C)(C)c1ccc(O)c(Cc2ccc(Cl)cc2Cl)c1 [Clofoctol] | identified by the screening methods of the invention | – | – | – | – | – | –
2 | COC(=O)[C@H]1[C@H]2C[C@H]3c4[nH]c5cc(OC)ccc5c4CCN3C[C@H]2C[C@@H](OC(=O)c2cc(OC)c(OC)c(OC)c2)[C@@H]1OC [Isoreserpine] | identified by the screening methods of the invention | – | – | – | – | – | –
3 | N=C1C=CC(=C(c2ccc(N)cc2)c2ccc(N)cc2)C=C1 [Pararosaniline Pamoate] | identified by the screening methods of the invention | no visible difference | ≤ 2 | Inviable | found in the pilot tissue culture screen | reduced | 60
4 | Cc1ncc(CO)c(CO)c1O.Cl [pyroxidine HCl] | found in the pilot tissue culture screen | – | – | – | – | – | –
